Laboratory results reported in US20250186434A1, “SOS1 PROTEIN DEGRADERS, PHARMACEUTICAL COMPOSITIONS THEREOF, AND THEIR THERAPEUTIC APPLICATIONS” (BioTheryX, Inc., priority 2022, published 2025).

Biological target: T1, HiBiT-tagged endogenous SOS1 protein (Homo sapiens, UniProt Q07889)
T1 construct: HEK293 cells were engineered to express a HiBiT-tagged endogenous SOS1 protein; endogenous in cells; host or cells: HEK293 (engineered, HiBiT knock-in at the endogenous SOS1 locus)
T1 sequence (Q07889 1-1333): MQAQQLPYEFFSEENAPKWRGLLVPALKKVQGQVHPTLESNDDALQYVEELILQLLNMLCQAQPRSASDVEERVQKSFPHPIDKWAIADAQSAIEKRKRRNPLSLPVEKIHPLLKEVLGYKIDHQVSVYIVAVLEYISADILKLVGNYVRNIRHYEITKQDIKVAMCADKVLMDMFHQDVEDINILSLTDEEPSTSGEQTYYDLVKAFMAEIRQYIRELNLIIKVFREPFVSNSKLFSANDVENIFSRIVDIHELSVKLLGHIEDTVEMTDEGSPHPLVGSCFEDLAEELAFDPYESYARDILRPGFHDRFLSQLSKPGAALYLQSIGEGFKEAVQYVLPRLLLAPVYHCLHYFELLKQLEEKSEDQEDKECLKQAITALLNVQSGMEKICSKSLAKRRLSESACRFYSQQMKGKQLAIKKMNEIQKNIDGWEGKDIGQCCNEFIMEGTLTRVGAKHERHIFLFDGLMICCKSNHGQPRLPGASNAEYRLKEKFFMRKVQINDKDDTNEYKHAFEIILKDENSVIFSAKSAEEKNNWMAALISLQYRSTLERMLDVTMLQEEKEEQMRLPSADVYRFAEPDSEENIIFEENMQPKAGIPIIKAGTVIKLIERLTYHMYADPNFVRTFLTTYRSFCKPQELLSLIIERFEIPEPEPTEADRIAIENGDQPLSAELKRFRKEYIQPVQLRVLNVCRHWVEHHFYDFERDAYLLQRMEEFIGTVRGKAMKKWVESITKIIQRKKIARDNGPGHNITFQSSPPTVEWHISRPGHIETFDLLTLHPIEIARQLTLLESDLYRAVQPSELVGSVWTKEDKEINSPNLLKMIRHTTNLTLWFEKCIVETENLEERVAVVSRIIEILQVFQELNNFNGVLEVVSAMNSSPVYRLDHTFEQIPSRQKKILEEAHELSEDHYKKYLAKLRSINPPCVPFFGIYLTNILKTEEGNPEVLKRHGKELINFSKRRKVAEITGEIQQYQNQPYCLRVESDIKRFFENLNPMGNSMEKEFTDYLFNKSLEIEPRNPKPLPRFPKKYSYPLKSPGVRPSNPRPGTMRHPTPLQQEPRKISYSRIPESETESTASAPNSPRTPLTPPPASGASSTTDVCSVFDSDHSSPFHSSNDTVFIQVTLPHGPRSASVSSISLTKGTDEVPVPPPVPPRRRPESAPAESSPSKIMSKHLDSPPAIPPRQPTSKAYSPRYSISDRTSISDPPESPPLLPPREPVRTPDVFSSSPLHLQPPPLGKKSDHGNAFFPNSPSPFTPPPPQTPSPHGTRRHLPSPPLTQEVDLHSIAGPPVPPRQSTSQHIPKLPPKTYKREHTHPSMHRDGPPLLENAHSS
Assay: SOS1-HiBiT Degradation Assay
Type: cell-based
Conditions: HEK293 cells expressing HiBiT-tagged endogenous SOS1, 6 h treatment
Experimental: HEK293 cells were engineered to express a HiBiT-tagged endogenous SOS1 protein. The cells were cultured in DMEM media supplemented with 10% fetal bovine serum, streptomycin, and penicillin. The cells were seeded in a white walled 384-well plate at 12,500 cells/well in 50 μL culture media. The cells were incubated at 37° C. under 5% CO2 overnight. The cells were then treated with DMSO (control) or a compound for 6 h at 37° C. under 5% CO2. After incubation, 25 μL media was removed from each cell and 25 μL NANO-GLO® lytic detection reagent was added to each well. After a 10 min incubation with shaking, luminescence was measured using a PERKINELMER ENVISION® multimode plate reader.

Row | SMILES | DC50 [µM] | Dmax [%]
1 | Cc1c([C@@H](C)Nc2nnc(C)c3ccc(N4CCN(CCCCCN5CCC(c6cc7c(cc6F)C(=O)N(C6CCC(=O)NC6=O)C7)CC5)CC4)cc23)cccc1C(F)(F)F (stereo partly drawn) [Compound A101, 3-(6-fluoro-5-(1-(5-(4-(1-methyl-4-(((R)-1-(2-methyl-3-(trifluoromethyl)phenyl)-ethyl)amino)phthalazin-6-yl)piperazin-1-yl)pentyl)piperidin-4-yl)-1-oxoisoindolin-2-yl)-piperidine-2,6-dione] | ≤ 0.1 | ≥ 70
2 | COc1cc2nc(C)nc(N[C@H](C)c3cc(N)cc(C(F)(F)F)c3)c2cc1OC [Compound C1, (R)—N-(1-(3-amino-5-(trifluoromethyl)phenyl)ethyl)-6,7-dimethoxy-2-methylquinazolin-4-amine, reference compound] | > 10 | –
3 | Cc1c([C@@H](C)Nc2nnc(C)c3ccc(N4CCN(CCCCCCCCCN5CCC(c6cc7c(cc6F)C(=O)N(C6CCC(=O)NC6=O)C7)CC5)CC4)cc23)cccc1C(F)(F)F (stereo partly drawn) [Compound A103, 3-(6-Fluoro-5-(1-(9-(4-(1-methyl-4-(((R)-1-(2-methyl-3-(trifluoromethyl)phenyl)-ethyl)amino)phthalazin-6-yl)piperazin-1-yl)nonyl)piperidin-4-yl)-1-oxoisoindolin-2-yl)-piperidine-2,6-dione] | ≤ 0.1 | ≥ 70

Second part, the molecule after the results:

Row | DC50 [µM] | Dmax [%] | SMILES
4 | ≤ 0.1 | ≥ 70 | Cc1c([C@@H](C)Nc2nnc(C)c3ccc(N4CCN(CCCCCCCCCN5CCN(C(=O)CNc6ccc(C7CCC(=O)NC7=O)cc6)CC5)CC4)cc23)cccc1C(F)(F)F (stereo partly drawn) [Compound A303, 3-(4-((2-(4-(9-(4-(1-methyl-4-(((R)-1-(2-methyl-3-(trifluoromethyl)phenyl)-ethyl)amino)phthalazin-6-yl)piperazin-1-yl)nonyl)piperazin-1-yl)-2-oxoethyl)amino)phenyl)-piperidine-2,6-dione]
5 | ≤ 0.1 | ≥ 70 | Cc1c([C@@H](C)Nc2nnc(C)c3ccc(N4CCN(CCCCCCCCCN5CCN(C(=O)CNc6cccc7c(C8CCC(=O)NC8=O)nn(C)c67)CC5)CC4)cc23)cccc1C(F)(F)F (stereo partly drawn) [Compound A203, 3-(1-methyl-7-((2-(4-(9-(4-(1-methyl-4-(((R)-1-(2-methyl-3-(trifluoromethyl)-phenyl)ethyl)amino)phthalazin-6-yl)piperazin-1-yl)nonyl)piperazin-1-yl)-2-oxoethyl)amino)-1H-indazol-3-yl)piperidine-2,6-dione]
6 | > 2 | < 30 | Cc1c([C@@H](C)Nc2nnc(C)c3ccc(N4CCN(CCCCCN5CCN(C(=O)CNc6ccc(C7CCC(=O)NC7=O)cc6)CC5)CC4)cc23)cccc1C(F)(F)F (stereo partly drawn) [Compound A301, 3-(4-((2-(4-(5-(4-(1-Methyl-4-(((R)-1-(2-methyl-3-(trifluoromethyl)phenyl)-ethyl)amino)phthalazin-6-yl)piperazin-1-yl)pentyl)piperazin-1-yl)-2-oxoethyl)amino)phenyl)-piperidine-2,6-dione]
